A short description of experiment [1]: Specific binding of ^3H-PGG-Glucan to sphingolipids in the 96-well plate assay. More on the design: ^3H-PGG-Glucan bound (specific binding): unit not given here. As to conditions: for ^3H-PGG-Glucan bound (specific binding): LacCer of defined fatty acid and long chain base, 96-well plate; for 3H-PGG-Glucan Bound (specific binding): sphingolipid immobilized in 96-well plate, 37° C.; for specific binding to ^3H-underivatized, aqueous soluble β(1-3)-glucan (in words): immobilized on a polystyrene 96-well plate. How it is done: Lactosyl ceramide or the sample to be measured was suspended in ethanol. Aliquots as specified were added in triplicate to the wells of a 96-well plate and air dried. The following components were premixed, then 100 μL was added to each well: saline (10 μL) or unlabelled, underivatized, aqueous soluble β(1-3)-glucan (10 μL of a 10 mg/ml stock), ^3H-underivatized, aqueous soluble β(1-3) glucan (10 μL of a 10 μg/ml stock), and HBSS (80 μL). Plates were incubated at 37° C. for 1.5 to 2 hours, then supernatants were removed from each well and discarded. Wells were rinsed with HBSS (200 μL) and SOLVABLE™ (100 μL) was added. The plate was incubated at 60° C. for 5 minutes, then supernatants were removed and counted.

Experiment [2] relates to human leukocyte membranes. As to the kind of experiment: ^3H-PGG-Glucan binding to pretreated human leukocyte membranes. To be noted: for effect of detergent pretreatment of membranes on specific binding (in words): membranes pretreated 5 minutes on ice (CHAPS 0.25%) (FIG. 9). How it is done:
Human leukocyte membranes were incubated in HBSS with or without 0.25% CHAPS for 5 minutes on ice, followed by centrifugation at 180,000×g, 4° C. for 45 minutes. Pellets were used in a binding assay with underivatized, aqueous soluble β(1-3)-glucan or dextran (avg. MW 71,000, Sigma Chemical Co., MO) as indicated at 1 mg/ml final concentration.
Human leukocyte membranes (500 μg protein) were incubated with sodium periodate at concentrations indicated in FIG. 12 (10 and 100 mM) for 30 minutes at room temperature, then centrifuged at 12,000×g for 10 minutes, rinsed and used in a binding assay (non-oil/sucrose; see FIG. 12). Protein-depleted membranes (derived from 1.87 mg human leukocyte membrane protein) were incubated in 0.1 M sodium periodate and treated as described above (FIG. 13).
An alternative procedure to that using the oil/sucrose gradient involved centrifuging 100 μl aliquots of the binding assay in microfuge tubes at 12,000×g, for five minutes, followed by rinsing the resultant pellet with HBSS. Pellets were then dissolved in SOLVABLE™ and radioactively determined as above.

The subject of experiment [3] is receptor for underivatized, aqueous soluble β(1-3)-glucan on human leukocyte membranes. As to the kind of experiment: Competition of ^3H-PGG-Glucan binding to human leukocyte membranes (oil/sucrose binding assay). How it is done: Aminated glucan was prepared by reductive amination of curdlan and provided by Dr. Rolph Seljelid (University of Tromsφ, Tromsφ, Norway).
At the end of the incubation, 100 μl aliquots of reaction mixture were layered on top of a double layer density gradient consisting of 100 μl dibutyl phthalate (lower layer) and 100 μl 8% sucrose in PBS (upper layer) in 400 μl centrifuge tubes (Brinkman). The tubes were spun at 15,000×g for 4-5 minutes and the tips containing the membrane pellets were removed, incubated in 300 μl SOLVABLE™ (New England Nuclear, Boston, Mass.) overnight at 50° C. to dissolve the pellet, and then radioactivity determined by liquid scintillation counting. […] Alternatively, membranes were centrifuged directly in their incubation tubes at 15,000×g for 4-5 minutes at 37° C., the pellet washed with HBSS, then pellets solubilized and radioactivity determined by liquid scintillation counting.

The nature of experiment [4]: Competition of ^3H-PGG-Glucan binding to lactosyl ceramide in 96-well plate assay (FIGS. 14, 15). More on the design: species or system bovine. To be noted: FIGS. 14 and 15. An excerpt:
FIG. 14 is a graph of the comparison of underivatized, aqueous soluble β(1-3)-glucan and single helix competition of ^3H-underivatized, aqueous soluble β(1-3)-glucan binding in three assay formats. Underivatized, aqueous soluble β(1-3)-glucan or single helix glucan was used at designated concentrations to compete for ^3H-underivatized, aqueous soluble β(1-3)-glucan binding to lactosyl ceramide (LacCer) in a 96-well plate (triangles), or to lactosyl ceramide in reconstituted membranes (squares), or to human leukocyte membranes (circles). Open symbols represent underivatized, aqueous soluble β(1-3) glucan, and closed symbols represent single helix. Maximum competition was assigned at the highest concentration of underivatized, aqueous soluble β(1-3)-glucan used as competitor in each type of assay.
FIG. 15 is a graphic illustration of data showing that underivatized, aqueous soluble β(1-3) glucan and high molecular weight underivatized, aqueous soluble β(1-3) glucan (Network) compete more effectively for ^3H-underivatized, aqueous soluble β(1-3)-glucan binding to lactosyl ceramide in a 96-well plate assay than do single helix or laminarin. […]
Lactosyl ceramide or the sample to be measured was suspended in ethanol. […] The plate was incubated at 60° C. for 5 minutes, then supernatants were removed and counted.

Setting [5] is: addition at 0.1 mg/ml, ^3H-PGG-Glucan binding to human leukocyte membranes.

Entries after “also recorded” stand apart in the source; their conditions may differ.

Take `CCCCCCCCCCCCCCCCCCCCCCCC(=O)NC(CO[C@@H]1O[C@H](CO)[C@@H](O[C@@H]2O[C@H](CO)[C@H](O)[C@H](O)[C@H]2O)[C@H](O)[C@H]1O)C(O)CCCCCCCCCCCCCCC` (mixture of isomers) [N-Lignoceroyl-DL-dihydrolacto-cerebroside]: in experiment [1], the “^3H-PGG-Glucan bound (specific binding)” value came out at 0.00.
With `CCCCCCCCCCCCCCCC(=O)NC(CO[C@@H]1O[C@H](CO)[C@@H](O[C@@H]2O[C@H](CO)[C@H](O)[C@H](O)[C@H]2O)[C@H](O)[C@H]1O)C(O)CCCCCCCCCCCCCCC` (mixture of isomers) [N-Palmitoyl-DL-dihydrolacto-cerebroside], the “^3H-PGG-Glucan bound (specific binding)” value in experiment [1] stood at 0.00.
Still for that read-out and setting: next, `CCCCCCCCCCCCCCCCCC(=O)NC(CO[C@@H]1O[C@H](CO)[C@@H](O[C@@H]2O[C@H](CO)[C@H](O)[C@H](O)[C@H]2O)[C@H](O)[C@H]1O)C(O)CCCCCCCCCCCCCCC` (mixture of isomers) [N-Stearoyl-DL-dihydrolacto-cerebroside]: 0.00.
As for `C[C@H](CCC(=O)NCCC[N+](C)(C)CCCS(=O)(=O)[O-])[C@H]1CC[C@H]2[C@@H]3[C@H](O)C[C@@H]4C[C@H](O)CC[C@]4(C)[C@H]3C[C@H](O)[C@]12C` [CHAPS], in experiment [2], the “effect of detergent pretreatment of membranes on specific binding (in words)” value is “enhancement of specific binding”.
For the molecule `O=C(O)CN(CCOCCOCCN(CC(=O)O)CC(=O)O)CC(=O)O` [EGTA], in experiment [3] (addition at 5 mM), the “% Control Binding” value came out at 87%.
As for `CCCCCCCCCCCCCC=CC(O)C(COC1OC(CO)C(OC2OC(CO)C(O)C(O)C2O)C(O)C1O)NC(=O)CCCCCCCCCCCCCCC` (stereo not drawn) [LacCer (HLM) C16:0], the “^3H-PGG-Glucan bound (specific binding)” value in experiment [1] was determined as 3.31.
Turning to `CCCCCCCCCCCCC/C=C/[C@@H](O)[C@H](CO[C@@H]1O[C@H](CO)[C@@H](O[C@@H]2O[C@H](CO)[C@H](O)[C@H](O)[C@H]2O)[C@H](O)[C@H]1O)NC(=O)CCCCCCCCCCCCCCCCC` [LacCer (HLM) C18:0], the “^3H-PGG-Glucan bound (specific binding)” value in experiment [1] is 1.93.
With `CCCCCCCCCCCCCC=CC(O)C(COC1OC(CO)C(OC2OC(CO)C(O)C(O)C2O)C(O)C1O)NC(=O)CCCCCCCCCCCCCCCCCCCCC` (stereo not drawn) [LacCer (HLM) C22:0], the “^3H-PGG-Glucan bound (specific binding)” value in experiment [1] came out at 3.57.
For `CCCCCCCCCCCCC/C=C/[C@@H](O)[C@H](CO[C@@H]1O[C@H](CO)[C@@H](O[C@@H]2O[C@H](CO)[C@H](O)[C@H](O)[C@H]2O)[C@H](O)[C@H]1O)NC(=O)CCCCCCCCCCCCCCCCCCCCCCC` [LacCer (HLM) C24:0], in experiment [1], the “^3H-PGG-Glucan bound (specific binding)” value is 3.14.
As for `CCCCCCCCCCCCC/C=C/[C@@H](O)[C@@H](N)CO` [Sphingosine], in experiment [1], the “3H-PGG-Glucan Bound (specific binding)” value is recorded as 0.02 ± 0.00 ng/μg sphingolipid.
Turning to `OC[C@H]1O[C@@H](O[C@@H]2[C@@H](O)[C@H](O[C@@H]3[C@@H](O)[C@H](O[C@@H]4[C@@H](O)[C@H](O[C@@H]5[C@@H](O)[C@H](O[C@@H]6[C@@H](O)[C@H](O[C@@H]7[C@@H](O)[C@H](O)O[C@H](CO)[C@H]7O)O[C@H](CO)[C@H]6O)O[C@H](CO)[C@H]5O)O[C@H](CO)[C@H]4O)O[C@H](CO)[C@H]3O)O[C@H](CO)[C@H]2O)[C@H](O)[C@@H](O)[C@@H]1O` [laminariheptose], the “inhibition of radioactively labeled underivatized, aqueous soluble β(1-3)-glucan binding to human leukocyte membranes (in words)” value in experiment [3] is on record as “no effect”.
Consider `CCCCCCCCO[C@@H]1O[C@H](CO)[C@@H](O)[C@H](O)[C@H]1O` [octylglucoside], for which the “effect of detergent pretreatment of membranes on specific binding (in words)” value in experiment [2] is “enhancement of specific binding”.
For the molecule `[Na+].[O-][I+3]([O-])([O-])[O-]` [sodium periodate], the “effect of sodium periodate treatment of membranes on binding activity (in words)” value in experiment [2] (10 and 100 mM, 30 minutes at room temperature (FIGS. 12, 13)) is “decreased”.
For the molecule Ceramides, in experiment [1], the “3H-PGG-Glucan Bound (specific binding)” value came out at 0.02 ± 0.01 ng/μg sphingolipid.
As for Dextran, the “% Control Binding” value in experiment [3] (addition at 1 mg/ml) came out at 88%.
In the case of Globoside, the “3H-PGG-Glucan Bound (specific binding)” value in experiment [1] is 0.00 ± 0.01 ng/μg sphingolipid.
Take Glycogen: the “% Control Binding” value in experiment [3] (setting [5]) was determined as 134%.
Consider Laminarin, for which the “inhibition of radioactively labeled underivatized, aqueous soluble β(1-3)-glucan binding to human leukocyte membranes (in words)” value in experiment [3] is “do not inhibit; also recorded: not inhibited”. In addition, the “% Control Binding” value in experiment [3] (addition at 1 mg/ml) is on record as 83%. In addition, the “competition for ^3H-underivatized, aqueous soluble β(1-3)-glucan binding to LacCer in the 96-well plate assay (in words)” value in experiment [4] is given as “does not compete efficiently”.
On to Lipopolysaccharide, for which the “% Control Binding” value in experiment [3] (setting [5]) is on record as 89%.
For Mannan, in experiment [3] (addition at 1 mg/ml), the “% Control Binding” value turned out to be 88%.
Turning to Sulfatides, in experiment [1], the “3H-PGG-Glucan Bound (specific binding)” value is 0.00 ± 0.01 ng/μg sphingolipid.
For galactosyl ceramides, in experiment [1], the “specific binding to ^3H-underivatized, aqueous soluble β(1-3)-glucan (in words)” value (“specific binding to ^3H-underivatized” below) was “significant specific binding”.
As for “globotriaosyl ceramide [GlobotriaosylCer]”, in experiment [1], the “specific binding to ^3H-underivatized” value is listed as “significant specific binding” and the “3H-PGG-Glucan Bound (specific binding)” value is 0.84 ± 0.13 ng/μg sphingolipid.
lactosyl ceramide: the “specific binding to ^3H-underivatized” value in experiment [1] is “significant specific binding”.

Values taken from US6630310B1, “Assay for binding between carbohydrate and glycolipid” (Biopolymer Engineering Pharmaceutical, Inc., priority 1996, dated 2003).
